Reference: US6335465B1, “Sterilized 5-aminolevulinic acid” (Dusa Pharmaceuticals, Inc., priority 1997, dated 2002)

Columns and labels:
Format in all cases: physicochemical
[1] = Color of crystalline ALA hydrochloride in sealed vials after gamma irradiation; details: crystals in sealed 60 ml glass vials after gamma radiation at the target dose (0, 15 or 30 KGys)
Procedure: ALA hydrochloride salt was obtained from Sochinaz, S.A., Vionnez, Switzerland. 1.65 grams of ALA hydrochloride salt was placed into 60 ml glass vials. 360 vials of crystalline non-irradiated ALA were prepared. of these, 225 vials were sealed under ambient conditions,and were irradiated with gamma radiation as shown in Table 1. Crystalline ALA was first micronized by pulverizing into fine particles a few μm in diameter by a jet mill by Micro-Macinazione, S.A. to determine if further reducing the crystalline size would have any effect on the color of the irradiated ALA. After micronization, 1.65 grams of ALA hydrochloride salt was placed into 60 ml glass vials. A total of 270 vials of crystalline non-irradiated ALA were prepared.

[2] = Storage stability of gamma irradiated ALA in the sealed bottle; details: despite the yellow color of the irradiated crystals
Text: The present invention is based on the finding that sterile ALA can be made and prepared well in advance of its final use, despite the extreme degradation generally found with ALA as noted above.

[3] = Comparison of irradiated and non-irradiated ALA (spectroscopic, chromatographic, solution pH, solubility profile, calorimetry; FIGS. 2-14); details: solution pH or solubility profile, except for the color
Text: This is explained more fully below with respect to FIGS. 2 to 14.
Although not intending to be bound by any theory, it appears that the color imparted by irradiation is due to F-centers.
The calorimetric measurements of FIGS. 2 and 3 indicate that any major structural differences are present in quantities of less than 1% of the total ALA amount, or that the type of any structural modification is such that the sensitivity of the calorimetric assay to the change is below the capacity of the instrumentation.
Spectral reflectance as shown in FIGS. 4 and 8-10 is very sensitive to spectral differences at or near the surface, while photoacoustic spectroscopy (“PAS”) as shown in FIGS. 5-7 is sensitive to changes both at the surface and the interior of the crystal.
Subsequent analysis of the type described above with respect to FIGS. 2-14, confirmed that there was no discernible difference in structure or pharmacological activity between the irradiated examples and the non-irradiated control comparative examples.

[4] = Degradation of crystalline ALA under gamma radiation; details: gamma radiation dose of 25 kilograys or greater
Text: This is significant, in that the United States Food and Drug Administration's (“FDA”) level of gamma irradiation for “overkill” is 25 kilograys. This is a level at which the FDA presumes, without evidence, that virtually all microorganisms have been killed.

| SMILES | color [1] | other results |
| --- | --- | --- |
| NCC(=O)CCC(=O)O [Comp. Ex. 2, 5-aminolevulinic acid] | off white |  |
| NCC(=O)CCC(=O)O [Example 3, 5-aminolevulinic acid] | yellow |  |
| NCC(=O)CCC(=O)O [Example 8, 5-aminolevulinic acid] | yellow |  |
| NCC(=O)CCC(=O)O [Example 1, 5-aminolevulinic acid] | yellow |  |
| NCC(=O)CCC(=O)O [Example 6, 5-aminolevulinic acid] | yellow |  |
| NCC(=O)CCC(=O)O [Comp. Ex. 1, 5-aminolevulinic acid] | off white |  |
| NCC(=O)CCC(=O)O [Example 10, 5-aminolevulinic acid] | yellow |  |
| NCC(=O)CCC(=O)O [Example 9, 5-aminolevulinic acid] | yellow |  |
| NCC(=O)CCC(=O)O [Example 4, 5-aminolevulinic acid] | yellow |  |
| NCC(=O)CCC(=O)O [Example 7, 5-aminolevulinic acid] | yellow |  |
| NCC(=O)CCC(=O)O [Example 2, 5-aminolevulinic acid] | yellow |  |
| NCC(=O)CCC(=O)O [irradiated crystalline ALA, 5-aminolevulinic acid] |  | degradation after irradiation [2]: had not been degraded; chemical properties versus non-irradiated ALA [3]: has not been distinguished in any chemical property from non-irradiated ALA |
| NCC(=O)CCC(=O)O [Comp. Ex. 3, 5-aminolevulinic acid] | off white |  |
| NCC(=O)CCC(=O)O [Example 5, 5-aminolevulinic acid] | yellow |  |
| NCC(=O)CCC(=O)O [crystalline ALA, 5-aminolevulinic acid] |  | degradation of the ALA at high gamma dose [4]: without detectable degradation |
| NCC(=O)CCC(=O)O [Comp. Ex. 4, 5-aminolevulinic acid] | off white |  |
